Source: ChEMBL document CHEMBL1649287, “Postantibiotic effect of ceftaroline against gram-positive organisms” (2009)
Converted amounts (≈) assume the structure as drawn.

Assays:
Type in all cases: functional
Enterococcus faecalis [1] = assay: Antimicrobial activity against vancomycin-sensitive Enterococcus faecalis 10 assessed as time required to induce sub-MIC effect at 0.2 times MIC after 1 hr by plate counting method; conditions: Enterococcus faecalis, 10, 1 h
Streptococcus pneumoniae [2] = assay: Antimicrobial activity against Penicillin-susceptible Streptococcus pneumoniae ATCC 49617 assessed as time required to induce sub-MIC effect at 0.3 times MIC after 1 hr by plate counting method; conditions: ATCC 49617, 1 h
Staphylococcus aureus [3] = assay: Antimicrobial activity against methicillin-resistant, vancomycin-susceptible Staphylococcus aureus vs1 assessed as time required to induce sub-MIC effect at 0.3 times MIC after 1 hr by plate counting method; conditions: vs1, 1 h
Staphylococcus aureus [4] = assay: Antimicrobial activity against methicillin-resistant, vancomycin-susceptible Staphylococcus aureus vs1 assessed as time required to induce post antibiotic sub-MIC effect at 0.3 times MIC after 1 hr by plate counting method; conditions: vs1, 1 h
Staphylococcus aureus [5] = assay: Antimicrobial activity against methicillin-resistant, vancomycin-hetroresistant Staphylococcus aureus 618 assessed as time required to induce post antibiotic sub-MIC effect at 0.3 times MIC after 1 hr by plate counting method; conditions: Staphylococcus aureus, 618, 1 h
Streptococcus pneumoniae [6] = assay: Antimicrobial activity against Penicillin-, erythromycin-resistant Streptococcus pneumoniae 37 assessed as time required to induce sub-MIC effect at 0.4 times MIC after 1 hr by plate counting method; conditions: Streptococcus pneumoniae, 37, 1 h
Staphylococcus aureus [7] = assay: Antimicrobial activity against methicillin-susceptible, vancomycin-susceptible Staphylococcus aureus sox1 assessed as time required to induce sub-MIC effect at 0.4 times MIC after 1 hr by plate counting method; conditions: sox1, 1 h
Staphylococcus aureus [8] = assay: Antimicrobial activity against methicillin-resistant, vancomycin-resistant Staphylococcus aureus 770 assessed as time required to induce sub-MIC effect at 0.4 times MIC after 1 hr by plate counting method; conditions: Staphylococcus aureus, 770, 1 h
Enterococcus faecalis [9] = assay: Antimicrobial activity against vancomycin-sensitive Enterococcus faecalis ATCC 29212 assessed as time required to induce sub-MIC effect at 0.4 times MIC after 1 hr by plate counting method; conditions: ATCC 29212, 1 h
Enterococcus faecalis [10] = assay: Antimicrobial activity against vancomycin-sensitive Enterococcus faecalis 20 by microdilution method
Enterococcus faecalis [11] = assay: Antimicrobial activity against vancomycin-sensitive Enterococcus faecalis ATCC 29212 assessed as post antibiotic effect at 10 times MIC after 1 hr by plate counting method; conditions: ATCC 29212, 1 h
Enterococcus faecalis [12] = assay: Antimicrobial activity against vancomycin-resistant Enterococcus faecalis 609 assessed as post antibiotic effect at 10 times MIC after 1 hr by plate counting method; conditions: Enterococcus faecalis, 609, 1 h
Streptococcus pneumoniae [13] = assay: Antimicrobial activity against Penicillin-intermediate Streptococcus pneumoniae s1234 assessed as time required to induce sub-MIC effect at 0.2 times MIC after 1 hr by plate counting method

Question: For `CCO/N=C(\C(=O)N[C@@H]1C(=O)N2C(C(=O)[O-])=C(Sc3nc(-c4cc[n+](C)cc4)cs3)CS[C@H]12)c1nsc(NP(=O)(O)O)n1` [CEFTAROLINE FOSAMIL], which PAE (Enterococcus faecalis [1]) is on record?
Answer: 0.8 h

Question: What about the PAE (Streptococcus pneumoniae [2]) of the same molecule?
Answer: 0.7 h

Question: And the time (Staphylococcus aureus [3])?
Answer: 0.7 h

Question: What about the time (Staphylococcus aureus [4]) of the same molecule?
Answer: 4.7 h

Question: What about the time (Staphylococcus aureus [5]) of the same molecule?
Answer: 2.7 h

Question: What about the time (Streptococcus pneumoniae [6]) of the same molecule?
Answer: 0.5 h

Question: And the PAE (Staphylococcus aureus [7])?
Answer: 1.6 h

Question: What about the time (Staphylococcus aureus [8]) of the same molecule?
Answer: 0.6 h

Question: What about the PAE (Enterococcus faecalis [9]) of the same molecule?
Answer: 10 h

Question: What about the MIC (Enterococcus faecalis [10]) of the same molecule?
Answer: 0.5 µg/mL (≈ 0.73 µM)

Question: And the PAE (Enterococcus faecalis [11])?
Answer: 0.8 h

Question: And the PAE (Enterococcus faecalis [12])?
Answer: 0.2 h

Question: What about the PAE (Streptococcus pneumoniae [13]) of the same molecule?
Answer: 0 h
